Earlier results, collected in patent publication US10272040B2, “Liposomal formulation for ocular drug delivery” (Nanyang Technological University, priority 2010, dated 2019).

Columns and labels:
[1] = SRC PhysProp Database
[2] = other drugs in liposomes

log P [1]	SMILES	Drug:Lipid mole ratio, Literature [2]
4.4	CC(C)OC(=O)CCC/C=C\C[C@@H]1[C@@H](CC[C@@H](O)CCc2ccccc2)[C@H](O)C[C@@H]1O [latanoprost]	
	N.N.[Cl][Pt][Cl] [cisplatin]	0.05
